Laboratory results reported in PubChem BioAssay AID330 (DTP/NCI, 2004).
Values joined by “and” are separate entries in the source; they are usually repeats but may differ in a detail not shown here. Identical values can stand only once. Inconclusive results and toxic doses are left out. Peptide text beside a SMILES is read from it. * marks the point of attachment. Cbz = O=C(OCc1ccccc1)*

Test system: P388 leukemia ip, CD2F1 mice, survival T/C
Assay: NCI In Vivo Anticancer Drug Screen. Data for tumor model P388 Leukemia (intraperitoneal) in CD2F1 (CDF1) mice
Settings: endpoint: median survival time, higher = longer survival
In short: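 Mice carrying the transplanted tumor received test compound or vehicle. Survival was recorded in each group, and the value is the treated-group measurement divided by that of the vehicle-treated control group.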

## CC[C@]1(O)C[C@H]2CN(CCc3c([nH]c4ccccc34)[C@@](C(=O)OC)(c3cc4c(cc3OC)N(C=O)[C@H]3[C@@](O)(C(=O)OC)[C@H](OC(C)=O)[C@]5(CC)C=CCN6CC[C@]43[C@@H]65)C2)C1
dose: 0.06 mg/kg/injection, schedule: Q01DX010 (ip), vehicle: saline
  T/C: 168 % of control
dose: 0.08 mg/kg/injection, schedule: Q01DX009 (ip), vehicle: saline
  T/C: 172 % of control
dose: 0.08 mg/kg/injection, schedule: Q01DX009 (ip), vehicle: water
  T/C: 115 % of control
dose: 0.12 mg/kg/injection, schedule: Q01DX009 (ip), vehicle: water
  T/C: 166 % of control
dose: 0.12 mg/kg/injection, schedule: Q04DX003 (ip), vehicle: saline
  T/C: 163 % of control
dose: 0.13 mg/kg/injection, schedule: Q01DX005 (ip), vehicle: saline
  T/C: 161 % of control and 168 % of control
dose: 0.13 mg/kg/injection, schedule: Q01DX010 (ip), vehicle: saline
  T/C: 181 % of control
dose: 0.15 mg/kg/injection, schedule: Q01DX009 (ip), vehicle: saline
  T/C: 190 % of control
dose: 0.18 mg/kg/injection, schedule: Q01DX005 (ip), vehicle: saline
  T/C: 110 % of control and 123 % of control
dose: 0.2 mg/kg/injection, schedule: Q01DX009 (ip), vehicle: saline
  T/C: 169 % of control
dose: 0.2 mg/kg/injection, schedule: Q04DX003 (ip), vehicle: water
  T/C: 196 % of control
dose: 0.22 mg/kg/injection, schedule: Q01DX009 (ip), vehicle: saline
  T/C: 114 % of control
dose: 0.22 mg/kg/injection, schedule: Q01DX009 (ip), vehicle: water
  T/C: 113 % of control
dose: 0.25 mg/kg/injection, schedule: Q01DX001 (ip), vehicle: saline with Tween-80
  T/C: 115 % of control
dose: 0.25 mg/kg/injection, schedule: Q01DX001 (iv), vehicle: saline
  T/C: 122 % of control
dose: 0.25 mg/kg/injection, schedule: Q01DX005 (ip), vehicle: saline
  T/C: 180 % of control and 184 % of control
dose: 0.25 mg/kg/injection, schedule: Q01DX010 (ip), vehicle: saline
  T/C: 177 % of control
dose: 0.25 mg/kg/injection, schedule: Q04DX003 (iv), vehicle: saline
  T/C: 120 % of control
dose: 0.3 mg/kg/injection, schedule: Q01DX005 (ip), vehicle: saline
  T/C: 112 % of control
dose: 0.3 mg/kg/injection, schedule: Q04DX002 (ip), vehicle: saline
  T/C: 150 % of control
dose: 0.33 mg/kg/injection, schedule: Q01DX009 (ip), vehicle: saline
  T/C: 113 % of control
dose: 0.36 mg/kg/injection, schedule: Q01DX009 (ip), vehicle: water
  T/C: 150 % of control
dose: 0.36 mg/kg/injection, schedule: Q04DX003 (ip), vehicle: saline
  T/C: 167 % of control and 169 % of control and 174 % of control
dose: 0.36 mg/kg/injection, schedule: Q04DX003 (iv), vehicle: saline
  T/C: 119 % of control and 123 % of control
dose: 0.37 mg/kg/injection, schedule: Q04DX002 (ip), vehicle: saline
  T/C: 117 % of control
dose: 0.39 mg/kg/injection, schedule: Q04DX002 (ip), vehicle: saline
  T/C: 154 % of control and 164 % of control
dose: 0.4 mg/kg/injection, schedule: Q01DX005 (ip), vehicle: saline
  T/C: 171 % of control
dose: 0.4 mg/kg/injection, schedule: Q04DX003 (ip), vehicle: saline
  T/C: 113 % of control
dose: 0.43 mg/kg/injection, schedule: Q04DX002 (ip), vehicle: saline
  T/C: 153 % of control and 176 % of control
dose: 0.44 mg/kg/injection, schedule: Q04DX002 (ip), vehicle: saline
  T/C: 162 % of control
dose: 0.5 mg/kg/injection, schedule: Q04DX003 (oral), vehicle: water
  T/C: 100 % of control
dose: 0.5 mg/kg/injection, schedule: Q04DX004 (ip), vehicle: saline
  T/C: 169 % of control
dose: 0.53 mg/kg/injection, schedule: Q04DX003 (ip), vehicle: saline
  T/C: 179 % of control and 182 % of control
dose: 0.6 mg/kg/injection, schedule: Q01DX009 (ip), vehicle: saline
  T/C: 200 % of control
dose: 0.6 mg/kg/injection, schedule: Q04DX003 (ip), vehicle: saline
  T/C: 198 % of control
dose: 0.65 mg/kg/injection, schedule: Q04DX002 (ip), vehicle: saline
  T/C: 161 % of control and 168 % of control
dose: 0.67 mg/kg/injection, schedule: Q04DX002 (ip), vehicle: saline
  T/C: 174 % of control
dose: 0.72 mg/kg/injection, schedule: Q04DX002 (ip), vehicle: saline
  T/C: 158 % of control and 192 % of control
dose: 0.8 mg/kg/injection, schedule: Q01DX005 (ip), vehicle: saline
  T/C: 186 % of control
dose: 0.8 mg/kg/injection, schedule: Q04DX003 (ip), vehicle: water
  T/C: 191 % of control
dose: 0.8 mg/kg/injection, schedule: Q04DX003 (iv), vehicle: saline
  T/C: 161 % of control and 168 % of control
dose: 1.0 mg/kg/injection, schedule: Q01DX003 (ip), vehicle: saline
  T/C: 163 % of control
dose: 1.0 mg/kg/injection, schedule: Q04DX002 (ip), vehicle: saline
  T/C: 184 % of control
dose: 1.0 mg/kg/injection, schedule: Q04DX003 (iv), vehicle: saline
  T/C: 182 % of control
dose: 1.0 mg/kg/injection, schedule: Q04DX003 (oral), vehicle: water
  T/C: 106 % of control
dose: 1.08 mg/kg/injection, schedule: Q04DX002 (ip), vehicle: saline
  T/C: 167 % of control and 177 % of control
dose: 1.2 mg/kg/injection, schedule: Q04DX002 (ip), vehicle: saline
  T/C: 169 % of control and 179 % of control
dose: 1.2 mg/kg/injection, schedule: Q04DX003 (iv), vehicle: saline
  T/C: 173 % of control and 177 % of control
dose: 1.3 mg/kg/injection, schedule: Q01DX001 (ip), vehicle: saline
  T/C: 156 % of control
dose: 1.5 mg/kg/injection, schedule: Q04DX002 (ip), vehicle: saline
  T/C: 161 % of control
dose: 1.8 mg/kg/injection, schedule: Q04DX002 (ip), vehicle: saline
  T/C: 191 % of control and 200 % of control
dose: 1.8 mg/kg/injection, schedule: Q04DX003 (iv), vehicle: saline
  T/C: 167 % of control and 182 % of control
dose: 2.0 mg/kg/injection, schedule: Q01DX001 (ip), vehicle: Klucel (hydroxypropylcellulose) (HPC)
  T/C: 155 % of control and 162 % of control
dose: 2.0 mg/kg/injection, schedule: Q01DX001 (ip), vehicle: saline with Tween-80
  T/C: 157 % of control
dose: 2.0 mg/kg/injection, schedule: Q01DX001 (iv), vehicle: saline
  T/C: 154 % of control
dose: 2.0 mg/kg/injection, schedule: Q04DX002 (ip), vehicle: saline
  T/C: 182 % of control
dose: 2.0 mg/kg/injection, schedule: Q04DX003 (oral), vehicle: water
  T/C: 102 % of control
dose: 2.7 mg/kg/injection, schedule: Q04DX003 (ip), vehicle: saline
  T/C: 179 % of control
dose: 2.7 mg/kg/injection, schedule: Q04DX003 (iv), vehicle: saline
  T/C: 100 % of control
dose: 3.0 mg/kg/injection, schedule: Q01DX001 (ip), vehicle: saline
  T/C: 170 % of control and 192 % of control
dose: 3.0 mg/kg/injection, schedule: Q04DX002 (ip), vehicle: saline
  T/C: 99 % of control
dose: 4.0 mg/kg/injection, schedule: Q01DX001 (ip), vehicle: Klucel (hydroxypropylcellulose) (HPC)
  T/C: 167 % of control and 174 % of control
dose: 4.0 mg/kg/injection, schedule: Q01DX001 (ip), vehicle: saline with Tween-80
  T/C: 168 % of control
dose: 4.0 mg/kg/injection, schedule: Q01DX001 (iv), vehicle: saline
  T/C: 121 % of control
dose: 4.0 mg/kg/injection, schedule: Q04DX003 (oral), vehicle: water
  T/C: 110 % of control
dose: 4.5 mg/kg/injection, schedule: Q01DX001 (ip), vehicle: saline
  T/C: 104 % of control
dose: 8.0 mg/kg/injection, schedule: Q01DX001 (ip), vehicle: Klucel (hydroxypropylcellulose) (HPC)
  T/C: 194 % of control

## Cc1cccc(/C(=C\c2ccc([N+](=O)[O-])cc2)C(=O)Nc2ccc(S(=O)(=O)F)c(C)c2)c1
dose: 60.0 mg/kg/injection, schedule: Q01DX005 (ip), vehicle: Klucel (hydroxypropylcellulose) (HPC)
  T/C: 88 % of control
dose: 120.0 mg/kg/injection, schedule: Q01DX005 (ip), vehicle: Klucel (hydroxypropylcellulose) (HPC)
  T/C: 86 % of control

## Cc1ccc2c(c1)C(=O)C(CN1CCN(C)CC1)CO2 (stereo not drawn)
dose: 50.0 mg/kg/injection, schedule: Q01DX009 (ip), vehicle: saline
  T/C: 106 % of control
dose: 100.0 mg/kg/injection, schedule: Q01DX009 (ip), vehicle: saline
  T/C: 109 % of control
dose: 200.0 mg/kg/injection, schedule: Q01DX009 (ip), vehicle: saline
  T/C: 99 % of control

## N#Cc1cnc2n(c1=N)CCCCC2
dose: 25.0 mg/kg/injection, schedule: Q04DX003 (ip), vehicle: Klucel (hydroxypropylcellulose) (HPC)
  T/C: 102 % of control
dose: 50.0 mg/kg/injection, schedule: Q04DX003 (ip), vehicle: Klucel (hydroxypropylcellulose) (HPC)
  T/C: 94 % of control
dose: 100.0 mg/kg/injection, schedule: Q04DX003 (ip), vehicle: Klucel (hydroxypropylcellulose) (HPC)
  T/C: 102 % of control

## O=C(NC(Cc1cnc[nH]1)C(=O)NC(Cc1ccc(O)cc1)C(=O)O)OCc1ccccc1 (stereo not drawn) (Cbz-His-Tyr-OH; configuration not given here)
dose: 50.0 mg/kg/injection, schedule: Q01DX005 (ip), vehicle: Klucel (hydroxypropylcellulose) (HPC)
  T/C: 93 % of control
dose: 100.0 mg/kg/injection, schedule: Q01DX005 (ip), vehicle: Klucel (hydroxypropylcellulose) (HPC)
  T/C: 95 % of control
dose: 200.0 mg/kg/injection, schedule: Q01DX005 (ip), vehicle: Klucel (hydroxypropylcellulose) (HPC)
  T/C: 92 % of control
